Data from patent publication US20250134855A1, “CO[…] AND METHODS OF USING SAME” (LYKOS THERAPEUTICS, INC., priority 2022, published 2025).

Columns and labels:
[1] = system: participants with PTSD, eating disorder symptoms; assay: EAT-26 eating disorder psychopathology before and after MDMA-AT (Phase 3 trial NCT03537014); assay type: in vivo, human
From the text: The Eating Attitudes Test (EAT or EAT-26) is a standardized self-reported questionnaire of symptoms and concerns characteristic of eating disorders. The EAT-26 uses a six-point scale based on how often the individual engages in specific behaviors. The questions can be answered: Always, Usually, Often, Sometimes, Rarely, and Never. Completing the EAT-26 yields a “referral index” based on three criteria: 1) the total score based on the answers to the EAT-26 questions; 2) answers to the behavioral questions related to eating symptoms and weight loss, and 3) the individual's body mass index (BMI) calculated from their height and weight. In some cases, an individual can be recommended for additional care if the individual meets a “cut off” score or threshold on one or more criteria. For example, if an individual score higher than a 20, the individual should be referred to a qualified professional for potential diagnosis of an eating disorder. (See, for example, Garner, D. M., & Garfinkel, P. E. (1979). Psychological Medicine, 9, 273-279.)
Exploratory data on ED psychopathology were analyzed that were collected as part of a Phase 3 trial (trial ID: NCT03537014, which is herein incorporated by reference in its entirety), which was a double-blind randomized controlled study that compared efficacy and safety of MDMA-AT between placebo and MDMA groups for treatment of PTSD. EAT-26 was included as a pre-specified exploratory measure to assess participants' attitudes about eating and food in addition to the presence of previously undetected EDs. EAT-26 assessments were collected at baseline (visit 4) and study termination (visit 20). This self-reported questionnaire consists of 25 components, each rated on a six-point scale of 0 (Never) to 3 (Always), plus an additional component rated from 0 (Always) to 3 (Never). The […] item addresses occurrence and frequency of specific eating behaviors, such as binge eating. Scores were combined to produce a total EAT-26 score, ranging from 0 to 78, with lower values indicating fewer symptoms. Participants meeting a total cut-off score of 20 or greater are considered likely candidates for having an ED diagnosis and warrant referral to a qualified professional.
Among a total of 90 participants who were randomized and received treatment, 89 participants completed the EAT-26 assessment at baseline, and seven participants withdrew from the study and were missing follow-up data (3 MDMA, 4 placebo). A total of 82 of 90 participants (91.1%) completed both baseline and follow-up EAT-26 assessments and were included in the final analysis. This preliminary analysis of an exploratory measure included only completers of both EAT-26 scores at baseline and follow-up assessments to avoid imputation of data that would attenuate the accuracy of results. […] The baseline sample consisted of participants who were majority female (65.2%), identified as women (62.9%), non-Hispanic White or Latino (89.9%), college graduates (70.8%), and the mean (SD) age was 41.0 (12.00) years. In total, 17 participants had been prescribed sertraline, of which 8 and 9 were assigned to the MDMA and placebo treatment groups, respectively. Furthermore, 6 participants had been prescribed paroxetine, which were equally distributed between MDMA and placebo treatment groups (3 and 3, respectively). At baseline, BMI (kg/m2) scores were in the ‘normal’ range (BMI 18.5-24.9) in 56.2%, ‘overweight’ (BMI 25.0-29.9) in 28.1%, and ‘obese’ (BMI≥30) in 15.7% of participants. There were no treatment group differences in demographic variables or baseline ACE, BDI-II, CAPS-5, or lifetime C-SSRS assessments. Mean BMI (SD) was 26.0 (4.8) kg/m2 in the MDMA-AT group and 24.8 (4.2) kg/m2 in the PLAC-AT group (t=1.3, p=. 2).

[2] = target: organic cation transporter (OCT1) (Homo sapiens, UniProt O15245); assay: Transporter inhibition, OCT1; conditions: at supratherapeutic concentrations
Chain of organic cation transporter (OCT1) (O15245 whole entry): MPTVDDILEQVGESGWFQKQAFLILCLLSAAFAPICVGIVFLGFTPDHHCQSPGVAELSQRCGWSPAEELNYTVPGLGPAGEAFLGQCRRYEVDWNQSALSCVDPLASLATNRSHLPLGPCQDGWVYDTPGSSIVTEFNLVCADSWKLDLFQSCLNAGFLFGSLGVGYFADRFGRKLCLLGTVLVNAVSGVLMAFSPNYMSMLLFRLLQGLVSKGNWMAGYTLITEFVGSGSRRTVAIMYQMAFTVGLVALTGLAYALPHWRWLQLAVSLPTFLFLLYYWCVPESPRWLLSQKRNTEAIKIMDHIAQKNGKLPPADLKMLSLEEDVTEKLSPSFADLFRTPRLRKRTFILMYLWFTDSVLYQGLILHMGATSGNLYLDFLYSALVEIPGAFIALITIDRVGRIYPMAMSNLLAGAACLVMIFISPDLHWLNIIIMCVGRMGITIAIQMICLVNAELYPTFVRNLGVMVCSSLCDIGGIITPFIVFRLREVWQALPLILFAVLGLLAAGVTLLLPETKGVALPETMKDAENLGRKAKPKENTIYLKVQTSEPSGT

MATE2-K = MATE2-K (Homo sapiens, UniProt Q86VL8); assay: Transporter inhibition, MATE2-K
Chain of MATE2-K (Q86VL8 1-566 isoform Q86VL8-3): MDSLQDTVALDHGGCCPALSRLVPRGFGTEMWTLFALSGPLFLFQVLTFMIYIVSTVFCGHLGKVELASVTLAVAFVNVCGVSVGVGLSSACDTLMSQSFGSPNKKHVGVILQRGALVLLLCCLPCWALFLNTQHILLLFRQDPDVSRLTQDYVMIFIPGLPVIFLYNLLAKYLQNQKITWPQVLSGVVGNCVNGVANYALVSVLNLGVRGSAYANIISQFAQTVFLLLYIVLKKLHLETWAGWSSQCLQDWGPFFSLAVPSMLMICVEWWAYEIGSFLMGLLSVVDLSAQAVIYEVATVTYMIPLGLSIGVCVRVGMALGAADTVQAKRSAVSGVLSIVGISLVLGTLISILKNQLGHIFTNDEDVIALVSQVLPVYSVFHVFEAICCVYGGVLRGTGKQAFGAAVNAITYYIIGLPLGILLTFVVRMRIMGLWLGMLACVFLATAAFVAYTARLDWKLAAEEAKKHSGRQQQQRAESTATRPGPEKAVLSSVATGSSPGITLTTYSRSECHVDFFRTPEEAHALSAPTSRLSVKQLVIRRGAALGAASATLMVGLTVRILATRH

`CNC(C)Cc1ccc2c(c1)OCO2` (centres unmarked) [MDMA, 3,4-methylenedioxymethamphetamine] was tested, and the “Cohen's d, EAT-26 reduction MDMA vs placebo” value ([1]; baseline EAT-26≥11 subset) was 0.52, the “RCI score, EAT-26” value ([1]; baseline EAT-26≥11 subset) was −2.16 and the “within-subject mean (SD) reduction in EAT-26 scores” value ([1]; baseline EAT-26≥11 subset) was −9.58 (7.59). For the same compound, the “RCI score, EAT-26” value ([1]; baseline EAT-26≥20 subset) was −2.83, the “within-subject mean reduction in EAT-26 scores” value ([1]; baseline EAT-26≥20 subset) was −14.08 and the “participants with EAT-26≥20 at follow-up” value ([1]; reduced from 5 (11.90%) at baseline) was 2.38%. For the same compound, the “within-subject mean (SD) reduction in EAT-26 scores, baseline to follow-up” value ([1]; total sample) was −3.04 (6.24), the “Hedge's g, EAT-26 change scores MDMA vs placebo” value ([1]; total sample, adjusted for baseline) was 0.33 and the “RCI score, EAT-26” value ([1]; women with EAT-26≥11) was −2.90. For the same compound, the “Hedge's g, EAT-26 change scores MDMA vs. placebo” value ([1]; women with baseline EAT-26≥11) was 0.63, the “Hedge's g, EAT-26 change scores MDMA vs. placebo” value ([1]; women with baseline EAT-26≥20) was 0.60 and the “RCI, change in EAT-26 score” value ([1]; women with baseline EAT-26≥20, group not given) was −18.80. The “inhibition of OCT1” value [2] was “inhibits” and the “inhibition of MATE2-K” value (MATE2-K) was “not an inhibitor”.
